Test results published in the NIST ThermoML archive (doi:10.1021/je050050p).
± gives the expanded uncertainty stated by the source.

Test: xn = mol fraction of the nth substance listed
Conditions: Liquid, Vibrating tube method

With CN(C)C=O [dimethylformamide] + O=C=O the mass density (332.98 K, 14003 kPa, x2 = 0.4268) was 937.07 ± 0.41 kg/m3, the mass density (332.98 K, 14011 kPa, x2 = 0.9311) was 761.83 ± 0.54 kg/m3 and the mass density (332.98 K, 15006 kPa, x2 = 0.4268) was 938.28 ± 0.41 kg/m3. For the same compound, the mass density (332.98 K, 15009 kPa, x2 = 0.9311) was 776.41 ± 0.52 kg/m3, the mass density (332.98 K, 16024 kPa, x2 = 0.4268) was 939.46 ± 0.41 kg/m3 and the mass density (332.98 K, 16030 kPa, x2 = 0.9311) was 789.22 ± 0.51 kg/m3. It also gave a mass density (332.98 K, 17017 kPa, x2 = 0.9311) of 800.11 ± 0.5 kg/m3, a mass density (332.98 K, 17036 kPa, x2 = 0.4268) of 940.67 ± 0.41 kg/m3 and a mass density (332.98 K, 18002 kPa, x2 = 0.9311) of 809.93 ± 0.49 kg/m3. For the same compound, the mass density (332.98 K, 18017 kPa, x2 = 0.4268) was 941.85 ± 0.41 kg/m3, the mass density (332.98 K, 19025 kPa, x2 = 0.4268) was 943 ± 0.41 kg/m3 and the mass density (332.98 K, 19031 kPa, x2 = 0.9311) was 819.29 ± 0.48 kg/m3. For the same compound, the mass density (332.98 K, 20004 kPa, x2 = 0.4268) was 944.1 ± 0.41 kg/m3, the mass density (332.98 K, 20025 kPa, x2 = 0.9311) was 827.57 ± 0.48 kg/m3 and the mass density (332.98 K, 21001 kPa, x2 = 0.4268) was 945.19 ± 0.41 kg/m3. The mass density (332.98 K, 21030 kPa, x2 = 0.9311) was 835.37 ± 0.47 kg/m3, the mass density (332.98 K, 21993 kPa, x2 = 0.4268) was 946.33 ± 0.41 kg/m3 and the mass density (332.98 K, 21994 kPa, x2 = 0.9311) was 842.35 ± 0.47 kg/m3. For the same compound, the mass density (332.98 K, 22998 kPa, x2 = 0.9311) was 849.15 ± 0.47 kg/m3, the mass density (332.98 K, 23015 kPa, x2 = 0.4268) was 947.45 ± 0.41 kg/m3 and the mass density (332.98 K, 24024 kPa, x2 = 0.9311) was 855.75 ± 0.46 kg/m3. The mass density (332.98 K, 24114 kPa, x2 = 0.4268) was 948.62 ± 0.41 kg/m3, the mass density (332.98 K, 25011 kPa, x2 = 0.9311) was 861.78 ± 0.46 kg/m3 and the mass density (332.98 K, 25061 kPa, x2 = 0.4268) was 949.68 ± 0.41 kg/m3. For the same compound, the mass density (332.99 K, 6007 kPa, x2 = 0.2876) was 926.13 ± 0.41 kg/m3, the mass density (332.99 K, 6998 kPa, x2 = 0.2876) was 927.15 ± 0.41 kg/m3 and the mass density (332.99 K, 7991 kPa, x2 = 0.2876) was 928.18 ± 0.41 kg/m3. For the same compound, the mass density (332.99 K, 9011 kPa, x2 = 0.4461) was 930.78 ± 0.41 kg/m3, the mass density (332.99 K, 9021 kPa, x2 = 0.2876) was 929.22 ± 0.41 kg/m3 and the mass density (332.99 K, 9993 kPa, x2 = 0.4461) was 931.95 ± 0.41 kg/m3. It also gave a mass density (332.99 K, 10024 kPa, x2 = 0.2876) of 930.23 ± 0.41 kg/m3, a mass density (332.99 K, 11006 kPa, x2 = 0.2876) of 931.19 ± 0.41 kg/m3 and a mass density (332.99 K, 11013 kPa, x2 = 0.4461) of 933.65 ± 0.41 kg/m3. It also gave a mass density (332.99 K, 12003 kPa, x2 = 0.4461) of 934.9 ± 0.41 kg/m3, a mass density (332.99 K, 12020 kPa, x2 = 0.2876) of 932.19 ± 0.41 kg/m3 and a mass density (332.99 K, 13012 kPa, x2 = 0.4461) of 936.18 ± 0.41 kg/m3. It also gave a mass density (332.99 K, 13024 kPa, x2 = 0.2876) of 933.16 ± 0.41 kg/m3, a mass density (332.99 K, 13991 kPa, x2 = 0.4461) of 937.43 ± 0.41 kg/m3 and a mass density (332.99 K, 14028 kPa, x2 = 0.2876) of 934.12 ± 0.41 kg/m3. It also gave a mass density (332.99 K, 15009 kPa, x2 = 0.4461) of 938.71 ± 0.41 kg/m3, a mass density (332.99 K, 15010 kPa, x2 = 0.2876) of 935.07 ± 0.41 kg/m3 and a mass density (332.99 K, 16010 kPa, x2 = 0.2876) of 936.01 ± 0.41 kg/m3. It also gave a mass density (332.99 K, 16010 kPa, x2 = 0.4461) of 939.93 ± 0.41 kg/m3, a mass density (332.99 K, 17001 kPa, x2 = 0.4461) of 941.16 ± 0.41 kg/m3 and a mass density (332.99 K, 17003 kPa, x2 = 0.2876) of 936.96 ± 0.41 kg/m3. The mass density (332.99 K, 17994 kPa, x2 = 0.4461) was 942.35 ± 0.41 kg/m3, the mass density (332.99 K, 18005 kPa, x2 = 0.2876) was 937.87 ± 0.41 kg/m3 and the mass density (332.99 K, 18988 kPa, x2 = 0.4461) was 943.52 ± 0.41 kg/m3. The mass density (332.99 K, 19008 kPa, x2 = 0.2876) was 938.78 ± 0.41 kg/m3, the mass density (332.99 K, 20001 kPa, x2 = 0.4461) was 944.69 ± 0.41 kg/m3 and the mass density (332.99 K, 20007 kPa, x2 = 0.2876) was 939.69 ± 0.41 kg/m3. The mass density (332.99 K, 20995 kPa, x2 = 0.4461) was 945.88 ± 0.41 kg/m3, the mass density (332.99 K, 21004 kPa, x2 = 0.2876) was 940.6 ± 0.41 kg/m3 and the mass density (332.99 K, 21990 kPa, x2 = 0.2876) was 941.48 ± 0.41 kg/m3. The mass density (332.99 K, 21998 kPa, x2 = 0.4461) was 947.03 ± 0.41 kg/m3, the mass density (332.99 K, 23023 kPa, x2 = 0.4461) was 948.19 ± 0.41 kg/m3 and the mass density (332.99 K, 23037 kPa, x2 = 0.2876) was 942.42 ± 0.41 kg/m3. It also gave a mass density (332.99 K, 23982 kPa, x2 = 0.4461) of 949.27 ± 0.41 kg/m3, a mass density (332.99 K, 24000 kPa, x2 = 0.2876) of 943.28 ± 0.41 kg/m3 and a mass density (332.99 K, 24996 kPa, x2 = 0.2876) of 944.13 ± 0.41 kg/m3. For the same compound, the mass density (332.99 K, 25021 kPa, x2 = 0.4461) was 950.44 ± 0.41 kg/m3, the mass density (333 K, 7019 kPa, x2 = 0.4502) was 928.11 ± 0.41 kg/m3 and the mass density (333 K, 8001 kPa, x2 = 0.4502) was 929.45 ± 0.41 kg/m3. The mass density (333 K, 8029 kPa, x2 = 0.4068) was 930.01 ± 0.41 kg/m3, the mass density (333 K, 9015 kPa, x2 = 0.4502) was 930.81 ± 0.41 kg/m3 and the mass density (333 K, 9016 kPa, x2 = 0.4068) was 931.23 ± 0.41 kg/m3. It also gave a mass density (333 K, 10008 kPa, x2 = 0.4068) of 932.42 ± 0.41 kg/m3, a mass density (333 K, 10013 kPa, x2 = 0.4502) of 932.14 ± 0.41 kg/m3 and a mass density (333 K, 11006 kPa, x2 = 0.4502) of 933.42 ± 0.41 kg/m3. The mass density (333 K, 11025 kPa, x2 = 0.4068) was 933.65 ± 0.41 kg/m3, the mass density (333 K, 12004 kPa, x2 = 0.4502) was 934.74 ± 0.41 kg/m3 and the mass density (333 K, 12006 kPa, x2 = 0.4068) was 934.81 ± 0.41 kg/m3. For the same compound, the mass density (333 K, 13019 kPa, x2 = 0.4068) was 936.04 ± 0.41 kg/m3, the mass density (333 K, 13021 kPa, x2 = 0.4502) was 936.04 ± 0.41 kg/m3 and the mass density (333 K, 14010 kPa, x2 = 0.4068) was 937.15 ± 0.41 kg/m3. It also gave a mass density (333 K, 14019 kPa, x2 = 0.4502) of 937.31 ± 0.41 kg/m3, a mass density (333 K, 15001 kPa, x2 = 0.4502) of 938.54 ± 0.41 kg/m3 and a mass density (333 K, 15002 kPa, x2 = 0.4068) of 938.28 ± 0.41 kg/m3. It also gave a mass density (333 K, 16010 kPa, x2 = 0.4068) of 939.41 ± 0.41 kg/m3, a mass density (333 K, 16014 kPa, x2 = 0.4502) of 939.78 ± 0.41 kg/m3 and a mass density (333 K, 16998 kPa, x2 = 0.4068) of 940.54 ± 0.41 kg/m3. It also gave a mass density (333 K, 17013 kPa, x2 = 0.4502) of 941.01 ± 0.41 kg/m3 and a mass density (333 K, 18013 kPa, x2 = 0.4068) of 941.67 ± 0.41 kg/m3.
